{"source": "paper PMC8126241", "about": "“Active Components from Cassia abbreviata Prevent HIV-1 Entry by Distinct Mechanisms of Action” (International Journal of Molecular Sciences, 2021)", "key": {"[1]": {"tested_on": "Feline herpes virus", "test": "Broad spectrum antiviral activity, CRFK cells", "format": "cell-based"}, "[2]": {"tested_on": "Respiratory syncytial virus", "test": "Broad spectrum antiviral activity, HeLa cells", "format": "cell-based", "details": "human respiratory syncytial virus"}, "[3]": {"tested_on": "Yellow fever virus", "test": "microbe, parasite or virus in culture", "format": "cell-based", "details": "Vero"}, "[4]": {"target": "T1, CXCR4 (Homo sapiens, UniProt P61073)", "T1 construct": "host or cells: U373-CD4-CXCR4 cells", "T1 sequence (P61073 whole entry)": "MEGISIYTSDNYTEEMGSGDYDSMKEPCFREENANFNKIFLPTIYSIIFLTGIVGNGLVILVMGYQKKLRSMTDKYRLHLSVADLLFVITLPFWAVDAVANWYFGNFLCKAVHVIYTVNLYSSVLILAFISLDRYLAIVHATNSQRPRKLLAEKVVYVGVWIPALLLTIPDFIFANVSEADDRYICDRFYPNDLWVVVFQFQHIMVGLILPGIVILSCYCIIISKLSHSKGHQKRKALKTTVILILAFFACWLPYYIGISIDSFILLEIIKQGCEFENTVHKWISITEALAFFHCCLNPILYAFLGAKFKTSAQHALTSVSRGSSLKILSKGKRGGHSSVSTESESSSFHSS", "test": "Binding competition with anti-CXCR4 antibody 12G5", "details": "anti-CXCR4 antibody 12G5, U373-CD4-CXCR4 cells"}, "[5]": {"tested_on": "PBMCs", "format": "cell-based, human", "method": "To measure apoptosis, PBMCs were incubated with or without drugs in a 96-well round bottom plate at 2 × 10^5/200 μL/well. After 2 days, cells were washed with PBS and stained with 2.5 μL Annexin-V-APC (Biosciences, Aalst, Belgium) in 100 μL staining buffer containing 10 mmol/L HEPES pH7.4, 140 mmol/L NaCl, and 2.5 mmol/L CaCl2 for 20 min at room temperature in dark. Cells were then washed with staining buffer and incubated with 100 μL 0.1 μg/mL propidium iodide (PI) (Thermo Fisher, Asse, Belgium) for 5 min at room temperature in dark. Stained cells were measured by flow cytometry (FACSCanto, BD, Aalst, Belgium)."}, "[6]": {"tested_on": "Herpes simplex virus-1 (KOS)", "test": "Broad spectrum antiviral activity, HEL cells", "format": "cell-based"}, "[7]": {"tested_on": "Herpes simplex virus-1 TK KOS ACV", "test": "Broad spectrum antiviral activity, HEL cells", "format": "cell-based", "details": "Human alphaherpesvirus 1, HEL"}, "[8]": {"tested_on": "non-B HIV-1 primary clinical isolate #2", "test": "microbe, parasite or virus in culture", "details": "Human immunodeficiency virus 1, PBMC, 168 h, read-out: IC50 non-B HIV-1 primary clinical isolate (second named)"}, "[9]": {"tested_on": "Herpes simplex virus-2 (G)", "test": "Broad spectrum antiviral activity, HEL cells", "format": "cell-based", "details": "Human alphaherpesvirus 2, HEL"}, "[10]": {"tested_on": "Feline corona virus (FIPV)", "test": "Broad spectrum antiviral activity, CRFK cells", "format": "cell-based", "details": "Alphacoronavirus 1"}, "[11]": {"tested_on": "DC-SIGN-captured virus transmission to CD4+ T cells", "test": "HIV-1 DC-SIGN transmission assay", "format": "cell-based", "details": "in vitro, data not shown", "method": "(§1) Dual chamber transmission assay was performed as previously described. HeLa cells were seeded into an upper chamber of a transwell plate (Sigma-Aldrich, Liège, Belgium), while TZM-bl cells were seeded in the lower chamber. Trans Epithelial Electric Resistance (TEER) was measured using Millicell-ERS Volt-Ohm Meter. HIV-1 ADA-M (200 pg) and drugs were added to the upper chamber after 4 days when TEER reached 150 Ohm/cm^2. 24 h after infection luciferase value of TZM-bl cells lysate was measured using the Luciferase System Kit and the POLARstar Omega Plate Reader. Data were analyzed using GraphPrism. The HIV-1 DC-SIGN transmission assay was performed as previously described."}, "[12]": {"tested_on": "Hepatitis C virus (Jc1)", "test": "Broad spectrum antiviral activity, Huh 7-D cells", "format": "cell-based"}, "[13]": {"tested_on": "Coxsackie virus B4", "test": "Broad spectrum antiviral activity, vero cells", "format": "cell-based", "details": "Enterovirus B"}, "[14]": {"tested_on": "Human corona virus", "test": "Broad spectrum antiviral activity, HEL cells", "format": "cell-based"}, "[15]": {"tested_on": "pseudotype virus pNL4.3ΔEnvLuc-HXB2", "details": "multi-dosing time assay"}, "[16]": {"tested_on": "PBMCs"}, "[17]": {"target": "T2, CCR5 (Homo sapiens, UniProt P51681)", "T2 construct": "host or cells: U373-CD4-CCR5 cells", "T2 sequence (P51681 whole entry)": "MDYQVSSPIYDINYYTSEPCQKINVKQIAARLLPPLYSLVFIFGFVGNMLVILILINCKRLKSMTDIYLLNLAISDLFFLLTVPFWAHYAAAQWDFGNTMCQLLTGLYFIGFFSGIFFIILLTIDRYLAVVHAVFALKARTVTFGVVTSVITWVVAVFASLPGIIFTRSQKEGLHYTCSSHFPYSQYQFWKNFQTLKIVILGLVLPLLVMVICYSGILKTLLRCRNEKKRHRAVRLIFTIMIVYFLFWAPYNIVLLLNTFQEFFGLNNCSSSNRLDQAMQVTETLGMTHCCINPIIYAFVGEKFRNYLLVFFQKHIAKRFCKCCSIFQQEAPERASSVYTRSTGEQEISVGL", "test": "Binding competition with anti-CCR5 antibody 2D7", "details": "anti-CCR5 antibody 2D7, U373-CD4-CCR5 cells", "method": "(§2) Binding competition between increasing concentrations of compounds and FITC-conjugated mouse anti-human CD4 clone RPA-4 (Biolegend, Amsterdam, Netherlands), PE-conjugated mouse anti-Human CXCR4 clone 12G5, and PE-conjugated mouse anti-human CCR5 clone 2D7 (BD Pharma, Aalst, Belgium) to U373-CD4-CXCR4 and U373-CD4-CCR5 cells was first tested by flow cytometry (FACSCanto). […] After 1 h of incubation at 4 °C, cells were washed with FACS buffer (1% bovine serum albumin, 0.1% N3Na in PBS, Sigma), and Mean Fluorescence Intensity (MFI) was measured. […] Internalization was stopped after 30 min by addition of NaN3 (0.1%) on ice. Cells were stained with anti-human CXCR4 clone 4G10 (BD, Belgium) or anti-human CCR5 (CD195) clone T21/8, (eBioscience, Asse, Belgium), Near-IR fluorescent reactive dye during 1 h at 4 °C, washed with FACS buffer, and a secondary PE-conjugated goat anti-mouse antibody (Jackson ImmunoResearch, West Grove, PA, USA)."}, "[18]": {"target": "T3, CD4 (Homo sapiens, UniProt P01730)", "T3 construct": "host or cells: U373-CD4-CXCR4 and U373-CD4-CCR5 cells", "test": "Binding competition with anti-CD4 antibodies", "details": "antibodies OKT4 and RPA-T4, U373-CD4-CXCR4/CCR5 cells", "method": "as §2"}, "[19]": {"tested_on": "sindbisvirus", "test": "Broad spectrum antiviral activity, vero cells", "format": "cell-based"}, "[20]": {"tested_on": "HIV-1", "details": "read-out: IC50 HIV-1 replication; ref Clouser et al. [24]; cited from earlier work"}, "[21]": {"tested_on": "Influenza A/H1N1 A/Ned/378/05", "test": "Broad spectrum antiviral activity, MDCK cells", "format": "cell-based", "details": "Influenza A virus"}, "[22]": {"tested_on": "pseudotype virus pNL4.3ΔEnvLuc-HXB2", "test": "microbe, parasite or virus in culture", "details": "Human immunodeficiency virus 1, HXB2, read-out: IC50 HIV-1 entry"}, "[23]": {"tested_on": "HIV-1 ADA-M", "test": "microbe, parasite or virus in culture", "details": "Human immunodeficiency virus 1, PBMC, 168 h, read-out: IC50 HIV-1 ADA-M"}, "[24]": {"tested_on": "Para-influenza-3 virus", "test": "organism not typed", "format": "cell-based", "details": "vero cells"}, "[25]": {"tested_on": "HeLa cells", "method": "as §1"}, "[26]": {"tested_on": "HIV-1 IIIB", "test": "microbe, parasite or virus in culture", "details": "Human immunodeficiency virus 1, IIIB, PBMC, 168 h, read-out: IC50 HIV-1 IIIB"}}, "note": "Where two headings read alike, the source gives them in different places."}
{"smiles": "Oc1cc(O)cc(/C=C/c2ccc(O)c(O)c2)c1", "note": "[piceatannol, trans-3,3′,4,5′-tetrahydroxystilbene]", "values": [{"measurement": "IC50", "setting": "[1]", "result": "> 100", "unit": "µM"}, {"measurement": "IC50", "setting": "[2]", "result": "> 100", "unit": "µM"}, {"measurement": "IC50", "setting": "[3]", "result": "> 100", "unit": "µM"}, {"measurement": "Inhibition of CXCR4 binding", "setting": "[4]", "result": "neither CE nor piceatannol did"}, {"measurement": "Induction of apoptosis in PBMCs", "setting": "[5]", "result": "did not induce any apoptosis"}, {"measurement": "IC50", "setting": "[6]", "result": "47.5 ± 3.5", "unit": "µM"}, {"measurement": "IC50", "setting": "[6]; Human alphaherpesvirus 1, HEL", "result": "~45", "unit": "µM"}, {"measurement": "IC50", "setting": "[7]", "result": "45.4 ± 4", "unit": "µM"}, {"measurement": "IC50", "setting": "[8]", "result": "8.04 ± 3.07", "unit": "µM"}, {"measurement": "IC50", "setting": "[9]", "result": "~45", "unit": "µM"}, {"measurement": "IC50", "setting": "[10]", "result": "> 100", "unit": "µM"}, {"measurement": "Prevention of transmission of DC-SIGN-captured virus to CD4+ T cells", "setting": "[11]", "result": "did not prevent"}, {"measurement": "IC50", "setting": "[12]", "result": "> 100", "unit": "µM"}, {"measurement": "IC50", "setting": "[13]", "result": "> 100", "unit": "µM"}, {"measurement": "IC50", "setting": "[14]", "result": "> 100", "unit": "µM"}, {"measurement": "Inhibitory effect when added after infection", "setting": "[15]; 2 h after spinoculation (post-infection)", "result": "did not find any effect"}, {"measurement": "Inhibitory effect when pre-incubated with cells", "setting": "[15]; 2 h pre-incubation on cells, HXB2 and BAL pseudotypes", "result": "inhibited HIV-1 infection at high concentration"}, {"measurement": "Inhibitory effect when pre-incubated with the virus", "setting": "[15]; 2 h pre-incubation on virus, HXB2 and BAL pseudotypes", "result": "not pre-incubated with the virus"}, {"measurement": "Effect on expression of CD25 and CD69", "setting": "[16]", "result": "did not have any effect"}, {"measurement": "Inhibition of CCR5 binding", "setting": "[17]", "result": "neither CE nor piceatannol did"}, {"measurement": "Inhibition of anti-CD4 antibodies binding to CD4", "setting": "[18]", "result": "neither CE nor piceatannol did"}, {"measurement": "IC50", "setting": "[19]", "result": "> 100", "unit": "µM"}, {"measurement": "IC50", "setting": "[20]", "result": 21.4, "unit": "µM"}, {"measurement": "IC50", "setting": "[21]", "result": "> 100", "unit": "µM"}, {"measurement": "IC50", "setting": "[22]", "result": "10.3 ± 5.74", "unit": "µM"}, {"measurement": "IC50", "setting": "[23]", "result": "19.9 ± 0.22", "unit": "µM"}, {"measurement": "IC50", "setting": "[24]", "result": "> 100", "unit": "µM"}, {"measurement": "Effect on confluence layer's TEER and epithelial cells viability", "setting": "[25]", "result": "without affecting"}, {"measurement": "IC50", "setting": "[26]", "result": "24.2 ± 7.13", "unit": "µM"}]}
